Measured values published in patent US9857359B2, “Methods for determining drug efficacy using cereblon-associated proteins” (CELGENE CORPORATION, priority 2012, dated 2018).

Columns and labels:
Aiolos [1] = experiment: Aiolos protein degradation in Jurkat cells; type: cell-based
Description: Jurkat cells were transfected with wildtype full length Aiolos and different lysine mutated full length Aiolos DNA (Origene, 5 μg DNA/100 μL R buffer/2×10^6 cells/shot) using Neon Transfection System (Invitrogen, Grand Island, N.Y.) with program 1350 voltage+10 width+3 pulse. GFP control DNA (Lonza) was also transfected. Transfected cells were cultured in 24-well plate with 1 mL RPMI+10% FBS at 37° C. for 6 hrs and then treated with DMSO or drug for another 48 hrs, Drug treated cells were collected for measuring Aiolos and Ikaros protein expression by western blot with antibodies against Aiolos (Santa Cruz, Dallas, Tex.) and Ikaros (Millipore, Billerica, Mass.).

Aiolos [2] = experiment: Aiolos inhibition by cohort in cancer patients, flow cytometry; type: in vivo, human; conditions: by time and dose
Description: Cancer patients were administered Compound A at doses of 0.5 mg, 1 mg, 1.5 mg, 2 mg, 2.5 mg, 3 or 3.5 mg. Blood samples were drawn immediately prior to dosing and 1.5 hr and 5 hr post single dose of Compound A. Peripheral blood mononuclear cells were FICOLL®-isolated from whole blood samples and viably frozen in DMSO. The cells were washed twice with 2 mL of cold phosphate buffer saline (PBS), then permeabilized by adding 2 mL of cold BD CYTOFIX/CYTOPERM™ buffer and incubated on ice for 15 minutes. The cells were centrifuged then washed twice with BD PERM/WASH™ buffer, then resuspended in 40 μl of BD PERM/WASH™ buffer. Cells were stained with anti-CD3 or anti-CD19 antibody, and 20 μl of anti-Aiolos Ab (Santa Cruz Santa Cruz, rabbit polyclonal IgG, cat#sc-101982 at 1:200 dilution with staining buffer), or 20 μL of appropriate isotype controls to cells. Cells were mixed thoroughly and incubated at room temperature for 30 minutes in the dark, washed once with BD perm/wash buffer, then resuspended in […] of BD PERM/WASH™ buffer, and 20 μL of secondary antibody was added before analysis on a flow cytometer.

Aiolos [3] = experiment: Aiolos expression in CD20+ B cells and CD3+ T cells, percentage of DMSO control (FACS); type: cell-based; conditions: n=3
Description: The Fix buffer I was warmed up to 37° C. in an incubator or water bath prior to use. The Perm Buffer III was chilled in a −20° C. freezer prior to use. The cells were collected at the end of treatment with testing compounds. One volume of the pre-warmed Fix Buffer I was mixed with one volume of cell suspension. If the volume of the cell suspension is greater than 100 μL, the cells were spun and resuspended in 100 μL medium or PBS. The buffer and the cell suspension were mixed well and incubated in a 37° C. water bath for 10 min. The cells were spun down at 250×g for 10 min and the supernatant was aspirated. The cells were washed once with BD Stain Buffer. The pellet was spun and the supernatant was removed. The cells were vortexed to be loosened, and permeabilized by slowly adding cold Perm Buffer III while vortexing or mixing. Subsequently, the cells were incubated on ice for 30 min. The cells were then spun down and washed twice with Stain Buffer. The supernatant was spun and aspirated. The cells were resuspended in a small volume of Stain buffer (50 or 100 μL containing from 200,000 to 1 million cells). Anti-IKFZ3 antibody was added to the cell suspension at 1:1000 dilution and incubated for 45 min at 4° C. The cells were then spun down and washed once with stain buffer. Secondary antibody was added to the cells at 1:5000 dilution and incubated at room temperature for 20 min in the dark. […]

Ikaros = Ikaros levels in PBMC of 32 cynomolgus monkeys; type: in vivo; conditions: 0.04, 0.15, 0.75 mg/kg orally for 1 month
Description: 32 cynomolgus monkeys were randomly divided into 4 groups. Each group had 4 female and 4 male monkeys (n=8). The 3 groups of monkeys were orally administered with Compound B at the dose of 0.04, 0.15, 0.75 mg/kg respectively. The left group was used as the vehicle control (0.5% carboxymethyl cellulose: 0.25% Tween 80 in deionised H2O). Following dosing with drugs for 1 month, whole bloods from each monkey were sampled and PBMCs isolated. Ikaros levels in PBMCs were quantified using the automated capillary-based SimpleWestern System Sally (ProteinSimple) as previously mentioned. Analyses for multiple group comparisons were performed with 1-way analysis of variance, followed by the Dunnett post-test, using GraphPad Prism® version 5.01 (GraphPad Software, Inc., La Jolla, Calif., USA). A value of P<0.05 was considered significant in all analyses.

Aiolos [4] = experiment: Aiolos flow cytometry in B and T cells of healthy volunteers; type: in vivo, human; conditions: doses greater than 0.3 mg
Description: Healthy volunteers were administered placebo (n=10) or Compound B at doses of 0.03 mg, 0.1 mg, 0.3 mg, 1 mg, or 2 mg (N=6 each). Blood samples were drawn prior to dosing, or 3 hr, 12 hr, and 24 hr after dosing. 1. Blood samples were lysed and fixed immediately by mixing 1 volume of blood with 20 volumes of 1× Lyse/Fix buffer (BD Biosciences, cat#558049) and mixing thoroughly by inverting the tube several times. This sample mix was incubated in a 37° C. water bath for 10 minutes, and the cells were pelleted by centrifugation at 800×g for 5 minutes to remove the supernatant by aspiration. The cells were washed twice with 2 mL of cold phosphate buffer saline (PBS), then permeabilized by adding 2 mL of cold BD Cytofix/cytoperm buffer and incubated on ice for 15 minutes. The cells were centrifuged then washed twice with BD perm/wash buffer, then resuspended in 40 μL of BD perm/wash buffer. Cells were stained with anti-CD3 or anti-CD19 antibody, and 20 μL of anti-Aiolos Ab (Santa Cruz Santa Cruz, rabbit polyclonal IgG, cat#sc-101982 at 1:200 dilution with staining buffer), or 20 μL of appropriate isotype controls to cells. Cells were mixed thoroughly and incubated at room temperature for 30 minutes in the dark, washed once with BD perm/wash buffer, then resuspended in 80 μL of BD perm/wash buffer, and 20 μL of secondary antibody was added before analysis on a flow cytometer.

DLBCL cell lines = experiment: Proliferation of DLBCL cell lines in vitro; type: cell-based
Aiolos [5] = experiment: Aiolos in siCRBN transfected primary CD3+ T cells; type: cell-based, human; conditions: siCRBN vs siControl, 6/24 hours
Description: Primary T cells were isolated from human leukocytes (Blood Center of New Jersey, East Orange, N.J.) by centrifugation through FICOLL® centrifugation medium following the ROSETETTESEP™ protocol (Stem Cell Technologies, Vancouver, Canada).

Structure (SMILES): Cc1nc2cccc(N)c2c(=O)n1C1CCC(=O)NC1=O (stereo not shown) [Compound A, 3-(5-amino-2-methyl-4-oxo-4H-quinazolin-3-yl)-piperidine-2,6-dione]
- Endogenous and over-expressed Aiolos (Aiolos [1]): degrades both endogenous and over-expressed Aiolos
- Aiolos inhibition in B cells (Aiolos [2]): Aiolos inhibition correlates with Compound A exposure
- Aiolos inhibition in T cells (Aiolos [2]): Aiolos inhibition correlates with Compound A exposure

Structure (SMILES): O=C1CC[C@H](N2Cc3c(OCc4ccc(CN5CCOCC5)cc4)cccc3C2=O)C(=O)N1 [Compound B, 3-(4-((4-(morpholinomethyl)benzyl)oxy)-1-oxoisoindolin-2-yl)piperidine-2,6-dione]
- Aiolos expression in CD3+ T cells (Aiolos [3]): significantly inhibited Aiolos expression
- Aiolos expression in CD20+ B cells (Aiolos [3]): significantly inhibited Aiolos expression
- Ikaros levels in PBMC (Ikaros): generally reduces the levels of Ikaros
- Aiolos expression in CD19+ B cells and CD3+ T cells (Aiolos [4]): inhibited Aiolos expression at significant levels

Structure (SMILES): Nc1cccc2c1CN(C1CCC(=O)NC1=O)C2=O (stereo not shown) [lenalidomide]
- Effect on non-ABC-DLBCL cells (DLBCL cell lines): minimal effect on non-ABC-DLBCL cells
- Proliferation of ABC-DLBCL cells (DLBCL cell lines; in vitro): preferentially suppressed proliferation of ABC-DLBCL cells

Structure (SMILES): Nc1cccc2c1C(=O)N(C1CCC(=O)NC1=O)C2=O (stereo not shown) [pomalidomide, reference compound]
- Effect in reducing or inhibiting the expression of Aiolos where CRBN is knocked-down (Aiolos [5]): significantly reduced as compared to the control cells with no CRBN knock-down
